Residue numbers refer to the chain shown, from its start.
Key:
[1] = system: T1, Dihydrofolate reductase (Escherichia coli), P0ABQ4 [T46A]
T1 sequence (whole entry): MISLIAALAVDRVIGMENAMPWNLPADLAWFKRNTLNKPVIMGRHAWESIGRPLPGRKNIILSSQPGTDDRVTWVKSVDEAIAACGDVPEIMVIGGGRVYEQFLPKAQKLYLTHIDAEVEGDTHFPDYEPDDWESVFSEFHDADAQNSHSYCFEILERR

[2] = system: T2, Dihydrofolate reductase (Escherichia coli), P0ABQ4 [T46N]
T2 sequence (whole entry): T1 sequence (whole entry) with A46N

[3] = system: T3, Dihydrofolate reductase (Escherichia coli), P0ABQ4 [T46S]
T3 sequence (whole entry): T1 sequence (whole entry) with A46S

[4] = target: T4, Dihydrofolate reductase (Escherichia coli) (UniProt P0ABQ4)
T4 sequence (whole entry): T1 sequence (whole entry) with A46T
Description: Dissociation rate constant of compound for wild type Escherichia coli dihydrofolate reductase

[5] = target: T4, Dihydrofolate reductase (Escherichia coli); remark: listed apart in the source
Description: Rate of hydride transfer (E-N) of compound for wild type Escherichia coli dihydrofolate reductase

Row | Rate of hydride transfer [5] | Compound | k off [1] | k off [2] | k off [3] | k off [4]
1 |  | NC(=O)c1ccc[n+]([C@@H]2O[C@H](COP(=O)([O-])OP(=O)(O)OC[C@H]3O[C@@H](n4cnc5c(N)ncnc54)[C@H](OP(=O)(O)O)[C@@H]3O)[C@@H](O)[C@H]2O)c1 | 28 s⁻¹ | 56 s⁻¹ | 60 s⁻¹ | 3.5 s⁻¹
2 |  | Nc1nc(=O)c2c([nH]1)NCC(CNc1ccc(C(=O)N[C@@H](CCC(=O)O)C(=O)O)cc1)=N2 |  |  |  | 22 s⁻¹
3 | 950 s⁻¹ | Nc1nc(O)c2c(n1)NCC(CNc1ccc(C(=O)N[C@@H](CCC(=O)O)C(=O)O)cc1)N2 (stereo not given in full) |  |  |  | 
4 |  | NC(=O)c1ccc[n+]([C@H]2O[C@@H](COP(=O)([O-])OP(=O)(O)OC[C@H]3O[C@@H](n4cnc5c(N)ncnc54)[C@H](OP(=O)(O)O)[C@@H]3O)[C@H](O)[C@@H]2O)c1 | 274 s⁻¹ | 253 s⁻¹ | 230 s⁻¹ | 200 s⁻¹

From ChEMBL document CHEMBL1125508
